This passage reports Papp results from PubChem BioAssay AID1508612.

This data set in a line: passive permeability, PAMPA, ADME assay (AID 1508612). The following applies: pH 7.4, 30.0 min, 50.0 µM. (In general: The PAMPA barrier holds no transporters, so it reflects passive diffusion.)
`COc1cc(-c2nc(Nc3ccc(F)c(F)c3)c3ccccc3n2)cc(OC)n1` registered a Papp of 26.5 ×10⁻⁶ cm/s.
On to `Cc1ccc(NC(=O)c2ccncc2NS(=O)(=O)c2ccc(C)cc2)cc1`, for which the apparent permeability coefficient (Papp) is 245 ×10⁻⁶ cm/s.
For `Cc1cc(-c2nnc3n2CCCCC3)c(C)n1-c1cccc(C#N)c1`, the Papp came out at 229 ×10⁻⁶ cm/s.
Molecule `Cc1sc(NC(=O)Cc2ccc3c(c2)OCO3)nc1-c1ccc2c(c1)CCN2C` came in with a Papp of less than 1 ×10⁻⁶ cm/s.
Take `CCCCNc1oc(-c2cccc3ccccc23)nc1C#N`: the Papp worked out at 38 ×10⁻⁶ cm/s.
For the molecule `CCn1c(SCc2ccc(C#N)cc2)nnc1-c1cccc(Cl)c1`, the apparent permeability coefficient (Papp) is 924 ×10⁻⁶ cm/s.
The result for `COC(=O)CNC(=O)c1nc(-c2ccc(Cl)nc2)c2ccccn12` reads greater than 1000 ×10⁻⁶ cm/s; that for `CCn1c(-c2nonc2N)nc2cnc(Oc3cccc(NC(=O)c4ccc(OCCN5CCOCC5)cc4)c3)cc21`, less than 1 ×10⁻⁶ cm/s; that for `COc1ccc(C2=Nn3c([n+](C)c4ccccc43)SC2)cc1`, less than 1 ×10⁻⁶ cm/s.
For `CCOc1ccc(NC(=O)CC2C(=O)N(c3ccc(F)cc3)C(=O)N2CCc2sccc2C)cc1` (stereo unspecified) the value was 927 ×10⁻⁶ cm/s; for `O=C1Cc2cc(C(=O)c3ccco3)ccc2N1`, 35.2 ×10⁻⁶ cm/s; for `c1ccc(CNc2nc(NCc3ccccc3)c3ccccc3n2)cc1`, 253 ×10⁻⁶ cm/s.
`COc1ccc(Nc2cc3c(nc2OC)nc(CCc2ccccc2)n3C)cn1` registered a Papp greater than 1000 ×10⁻⁶ cm/s.
For `CN1Cc2c(cc(N3CCOCC3)nc2-c2ccccc2OC(F)(F)F)C1=O`, the Papp is greater than 1000 ×10⁻⁶ cm/s.
On to `NC(=O)C1CCN(c2ncc(Br)cn2)CC1`, for which the apparent permeability (Papp) was found to be 61.5 ×10⁻⁶ cm/s.
`COc1cc(-c2cc3c(nc2-c2ccccc2)nc(C(=O)NC2CCN(C)CC2)n3C)ccn1` returned a Papp greater than 1000 ×10⁻⁶ cm/s.
The result for `COc1ccc2[nH]c(=O)c(-c3noc(-c4ccc(F)cc4)n3)cc2c1` reads 63 ×10⁻⁶ cm/s; that for `COc1cccc(CNc2ccc(S(=O)(=O)Nc3nccs3)cc2)c1N`, 28.8 ×10⁻⁶ cm/s; that for `CC(C)Oc1ccc(C(=O)Nc2ccc3c(c2)CCCN3C(=O)c2cccs2)cc1`, 491 ×10⁻⁶ cm/s.
For `Cc1ccc(NS(=O)(=O)c2cccc(C(=O)O)c2)cc1S(=O)(=O)N1CCOCC1` the value was 23.4 ×10⁻⁶ cm/s; for `CCCN1CNc2c(c(=O)[nH]c(=S)n2CCc2cccc(Cl)c2Cl)C1`, greater than 1000 ×10⁻⁶ cm/s.
The molecule `CCC(=O)N1CCN(c2ccc(-n3c(=O)ccc4cnc5ccc(-c6cnc7ccccc7c6)cc5c43)cc2C(F)(F)F)CC1` came in with a Papp of 178 ×10⁻⁶ cm/s.
In the case of `O=C(Nc1nc(-c2ccccc2)cs1)c1ccncc1NS(=O)(=O)c1ccc(F)cc1`, the Papp was 748 ×10⁻⁶ cm/s.
The result for `Cc1cnc(N2CCC(C(N)=O)CC2)nc1-c1cccc(N(C)C)c1` reads 666 ×10⁻⁶ cm/s; that for `Cc1noc(C)c1-c1ccc(Nc2nc(-c3ccncc3)nc3ccccc23)cc1F`, 410 ×10⁻⁶ cm/s.
Molecule `Brc1ccc(-c2csc(N3CCOCC3)n2)cc1` yielded a Papp of less than 1 ×10⁻⁶ cm/s.
The result for `CCOc1ccc(NC(=O)CSC2=Nc3ccccc3C3=NC(CC(=O)NCc4cccs4)C(=O)N23)cc1` (stereo unspecified) reads 25 ×10⁻⁶ cm/s; that for `CCc1ccc(-n2nc(C)c3c2NC(=O)CSC3c2ccccc2C)cc1` (stereo unspecified), 707 ×10⁻⁶ cm/s.
For `CN1CCN(C(=O)Cc2c[nH]c3ncc(-c4ccccc4Oc4ccccc4)cc23)CC1` the value was greater than 1000 ×10⁻⁶ cm/s.
For `CCCc1ccc(C(=O)NC(=O)c2ccccc2O)cc1` the value was less than 1 ×10⁻⁶ cm/s; for `NCC(=O)Nc1ccc(Cl)cc1C(=O)c1ccc[nH]1`, greater than 1000 ×10⁻⁶ cm/s.
With `CNC(=O)c1ccccc1Nc1nc(Nc2ccc(N3CCOCC3)cc2OC)ncc1Cl`, the Papp is greater than 1000 ×10⁻⁶ cm/s.
Molecule `Nc1ccc(S(=O)(=O)Nc2cnccc2C(=O)Nc2nc(-c3ccccc3)cs2)cc1` yielded an apparent permeability coefficient (Papp) of 101 ×10⁻⁶ cm/s.
For `COc1ccc(OC)c(-c2nc3c(C#N)c[nH]n3c2NC2CCCCC2)c1` the value was greater than 1000 ×10⁻⁶ cm/s; for `O=C(Oc1ccc[nH]c1=O)c1cc([N+](=O)[O-])cc([N+](=O)[O-])c1`, 16.2 ×10⁻⁶ cm/s.
For `Fc1ccc(CN2CCOC[C@H]2c2ncc(-c3ccc(Cl)s3)[nH]2)cc1` the value was greater than 1000 ×10⁻⁶ cm/s.
Molecule `CCc1ccc(NC(=O)c2[nH]c(C)c(C(C)=O)c2C)cc1S(=O)(=O)Nc1ccc(Br)cc1` had a Papp of less than 1 ×10⁻⁶ cm/s.
The result for `O=C1CCCc2cc(S(=O)(=O)Nc3cnccc3C(=O)Nc3nc(-c4ccccc4)cs3)ccc2N1` reads 1.7 ×10⁻⁶ cm/s.
For `Oc1ccc(Nc2nc(-c3ccncc3)nc3ccccc23)cc1F`, the apparent permeability coefficient (Papp) came to 664 ×10⁻⁶ cm/s.
The result for `COc1ccc(S(=O)(=O)Nc2cnccc2C(=O)Nc2nc(-c3ccccc3)cs2)cc1` reads 675 ×10⁻⁶ cm/s; that for `Cc1cc(C)nc(NS(=O)(=O)c2ccc(NC(=S)NC(=O)COc3ccc(Br)cc3Cl)cc2)n1`, 457 ×10⁻⁶ cm/s; that for `Cc1ccc(S(=O)(=O)Nc2ccccc2C(=O)Nc2ccc(-c3ccccc3)nn2)cc1`, greater than 1000 ×10⁻⁶ cm/s.
For `CC(=O)c1c(C)[nH]c(C(=O)Nc2cccc(S(=O)(=O)Nc3cccc(C#N)c3)c2)c1C` the value was 68.9 ×10⁻⁶ cm/s; for `[2H]C([2H])(Nc1nc(-c2ccccc2C([2H])(C([2H])([2H])[2H])C([2H])([2H])[2H])ncc1C)c1ccc(-n2ccnn2)cc1`, greater than 1000 ×10⁻⁶ cm/s.
For `Cc1ccc(CC(=O)Nc2nc(-c3ccc4c(c3)CCN4C(=O)c3ccccc3C)c(C)s2)cc1C` the value was 222 ×10⁻⁶ cm/s; for `CCCCOc1ccccc1C(=O)Nc1ccccc1C(=O)Nc1cccc(S(=O)(=O)C(F)(F)F)c1`, 5.2 ×10⁻⁶ cm/s; for `CCOc1ccc(CCNC(=O)c2cccc(C(=O)c3ccccc3)c2)cc1OCC`, greater than 1000 ×10⁻⁶ cm/s.
`O=C(O)c1ccnc2cc(-c3nc4ccccc4n3CCN3CCCCC3)sc12` returned an apparent permeability coefficient (Papp) of 4 ×10⁻⁶ cm/s.
The molecule `Cc1ccc(S(=O)(=O)NC2CCCCC2)cc1` yielded a Papp of 206 ×10⁻⁶ cm/s.
In turn, `Cc1ccc(S(=O)(=O)Nc2cnccc2C(=O)Nc2nc(-c3ccc4c(c3)CCCC4)cs2)cc1` displayed a Papp of 45.2 ×10⁻⁶ cm/s.
In the case of `CC(C)COc1ccc(-c2ccc(=O)n(CC(=O)NCCc3ccccc3)n2)cc1`, the Papp is greater than 1000 ×10⁻⁶ cm/s.
The result for `Clc1ccc2ncc(-c3cccc(NC4CCNCC4)n3)n2c1` reads 807 ×10⁻⁶ cm/s; that for `c1ccc(-c2cc(Nc3nc(-c4ccncc4)nc4ccccc34)n[nH]2)cc1`, 39.4 ×10⁻⁶ cm/s.
The result for `C#CCNC(=O)c1nc(-c2ccc([S+](C)(=O)[O-])cc2)c2cnccn12` reads less than 1 ×10⁻⁶ cm/s; that for `Cc1ccc(S(=O)(=O)Nc2cnccc2C(=O)Nc2nc(C(=O)O)cs2)cc1`, less than 1 ×10⁻⁶ cm/s; that for `Cc1ccc(S(=O)(=O)Nc2cnccc2C(=O)Nc2ccccc2)cc1`, 123 ×10⁻⁶ cm/s.
For `O=C1NCc2cc(-c3cc4c(ccn4Cc4ccncc4)c(N4CCOCC4)n3)ccc21` the value was 189 ×10⁻⁶ cm/s; for `CN(C)C(=O)c1cc2cnc(Nc3ccc(N4CCNCC4)cn3)nc2n1C1CCCC1`, 138 ×10⁻⁶ cm/s; for `CC1CCC(n2c3cnccc3c3cnc(Nc4ccc5c(n4)CCN(C(=O)CO)C5)nc32)CC1` (stereo unspecified), 135 ×10⁻⁶ cm/s.
`CCOc1ccc(CCNC(=O)c2cc3ccccc3n2CCN2CCOCC2)cc1OCC`: the Papp is greater than 1000 ×10⁻⁶ cm/s.
For `Cc1cccc(-n2cnc3cc(C(=O)N4CCCC(C)(C)C4)ccc32)c1` the value was greater than 1000 ×10⁻⁶ cm/s; for `O=C1Nc2ccccc2C1Cc1cc(Cl)c(O)c(Cl)c1` (stereo unspecified), 8.8 ×10⁻⁶ cm/s; for `O=C(/C=C/c1cn(CC(O)CN2CCCCCC2)c2ccccc12)c1ccc(Br)cc1` (stereo unspecified), 931 ×10⁻⁶ cm/s.
For `C#CCNC(=O)c1nc(-c2ccc([S+](C)(=O)[O-])cc2)c2ccccn12` the value was 545 ×10⁻⁶ cm/s; for `O=C(NCc1ccc(S(=O)(=O)c2cccc(C(F)(F)F)c2)cc1)c1cnc2[nH]ncc2c1`, 797 ×10⁻⁶ cm/s.
The result for `CCOC(=O)c1ccc2c(c1)c(C(C)=O)c(C)n2-c1ccc(OC)cc1` reads greater than 1000 ×10⁻⁶ cm/s.

The Papp is the rate of passage across a membrane or cell layer, normalised by area and donor concentration.
